Drawing on US8703934B2, “Substituted 4-amino-3,5-dicyano-2-thiopyridines and use thereof” (Bayer Intellectual Property GmbH, priority 2006, dated 2014), this text covers EC50 for nine compounds.

Holding throughout (format): cell-based
For one assay, the target named is T1, adenosine A1 receptor (Homo sapiens, UniProt P30542).
T1 construct: expressed in transfected cells; host or cells: CHO (Chinese Hamster Ovary)
T1 sequence (P30542 1-326): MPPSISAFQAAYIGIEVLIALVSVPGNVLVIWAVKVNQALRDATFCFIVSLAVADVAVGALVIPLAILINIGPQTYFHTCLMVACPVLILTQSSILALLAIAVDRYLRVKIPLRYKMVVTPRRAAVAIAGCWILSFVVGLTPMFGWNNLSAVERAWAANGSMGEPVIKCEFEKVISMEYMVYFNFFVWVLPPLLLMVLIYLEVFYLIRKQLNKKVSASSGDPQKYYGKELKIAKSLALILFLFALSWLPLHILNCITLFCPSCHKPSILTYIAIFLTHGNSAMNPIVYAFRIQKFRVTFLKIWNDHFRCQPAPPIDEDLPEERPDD
Kind of assay: Indirect determination of adenosine agonism by way of gene expression (luciferase, CHO cells), A1. To be noted: CHO cells stably transfected with A1 receptor cDNA; 1 μM forskolin; 50% inhibition of luciferase answer. The text has this: (§1) B-1. Indirect Determination of the Adenosine Agonism by Way of Gene Expression
(§2) Cells of the CHO (Chinese Hamster Ovary) permanent cell line are transfected stably with the cDNA for the adenosine receptor subtypes A1, A2a and A2b. The adenosine A1 receptors are coupled to the adenylate cyclase by way of G, proteins, while the adenosine A2a and A2b receptors are coupled by way of Gs proteins. In correspondence with this, the formation of cAMP in the cell is inhibited or stimulated, respectively. After that, expression of the luciferase is modulated by way of a cAMP-dependent promoter. The luciferase test is optimized, with the aim of high sensitivity and reproducibility, low variance and good suitability for implementation on a robot system, by varying several test parameters, such as cell density, duration of the growth phase and the test incubation, forskolin concentration and medium composition. The following test protocol is used for pharmacologically characterizing cells and for the robot-assisted substance screening:
(§3) The stock cultures are grown, at 37° C. and under 5% CO2, in DMEM/F12 medium containing 10% FCS (fetal calf serum) and in each case split 1:10 after 2-3 days. The test cultures are seeded in 384-well plates with 2000 cells per well and grown at 37° C. for approx. 48 hours. The medium is then replaced with a physiological sodium chloride solution (130 mM sodium chloride, 5 mM potassium chloride, 2 mM calcium chloride, 20 mM HEPES, 1 mM magnesium chloride hexahydrate, 5 mM sodium bicarbonate, pH 7.4). The substances to be tested, which are dissolved in DMSO, are pipetted into the test cultures (maximum final concentration of DMSO in the test mixture: 0.5%) in a dilution series of from 5×10^−11M to 3×10^−6M (final concentration). 10 minutes later, forskolin is added to the A1 cells and all the cultures are subsequently incubated at 37° C. for four hours. After that, 35 μl of a solution which is composed of 50% lysis reagent (30 mM disodium hydrogenphosphate, 10% glycerol, 3% TritonX100, 25 mM TrisHCl, 2 mM dithiotreitol (DTT), pH 7.8) and 50% luciferase substrate solution (2.5 mM ATP, 0.5 mM luciferin, 0.1 mM coenzyme A, 10 mM tricine, 1.35 mM magnesium sulfate, 15 mM DTT, pH 7.8) are added to the test cultures, which are shaken for approx 1 minute and the luciferase activity is measured using a camera system. The EC50 values are determined, i.e., the concentrations at which 50% of the luciferase answer is inhibited in the case of the A1 cell, and, respectively, 50% of the maximum stimulation with the corresponding substance is achieved in the case of the A2b and A2a cells. […] Pharmacol., 357 (1998), 1-9).

A further assay deals with T2, adenosine A2b receptor (Homo sapiens, UniProt P29275).
T2 construct: expressed in transfected cells; host or cells: CHO (Chinese Hamster Ovary)
T2 sequence (P29275 1-332): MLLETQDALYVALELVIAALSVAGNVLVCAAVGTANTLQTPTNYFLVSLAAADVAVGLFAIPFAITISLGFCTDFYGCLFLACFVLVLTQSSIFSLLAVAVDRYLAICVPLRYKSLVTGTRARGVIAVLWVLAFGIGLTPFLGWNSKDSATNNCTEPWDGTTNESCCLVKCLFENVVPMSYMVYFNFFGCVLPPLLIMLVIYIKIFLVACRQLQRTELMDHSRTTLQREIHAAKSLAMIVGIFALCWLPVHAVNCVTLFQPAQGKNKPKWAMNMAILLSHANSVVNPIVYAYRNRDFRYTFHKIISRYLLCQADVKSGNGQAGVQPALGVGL
Kind of assay: Indirect determination of adenosine agonism by way of gene expression (luciferase, CHO cells), A2b. To be noted: CHO cells stably transfected with A2b receptor cDNA; 50% of maximum luciferase stimulation.
Text: as §1, §2, §3

In the next assay the target is T3, adenosine A2a receptor (Homo sapiens, UniProt P29274).
T3 construct: expressed in transfected cells; host or cells: CHO (Chinese Hamster Ovary)
The assay is described as follows: Indirect determination of adenosine agonism by way of gene expression (luciferase, CHO cells), A2a. As to conditions: CHO cells stably transfected with A2a receptor cDNA; 50% of maximum luciferase stimulation.
Text: as §1, §2, §3

T3 sequence (P29274 whole entry): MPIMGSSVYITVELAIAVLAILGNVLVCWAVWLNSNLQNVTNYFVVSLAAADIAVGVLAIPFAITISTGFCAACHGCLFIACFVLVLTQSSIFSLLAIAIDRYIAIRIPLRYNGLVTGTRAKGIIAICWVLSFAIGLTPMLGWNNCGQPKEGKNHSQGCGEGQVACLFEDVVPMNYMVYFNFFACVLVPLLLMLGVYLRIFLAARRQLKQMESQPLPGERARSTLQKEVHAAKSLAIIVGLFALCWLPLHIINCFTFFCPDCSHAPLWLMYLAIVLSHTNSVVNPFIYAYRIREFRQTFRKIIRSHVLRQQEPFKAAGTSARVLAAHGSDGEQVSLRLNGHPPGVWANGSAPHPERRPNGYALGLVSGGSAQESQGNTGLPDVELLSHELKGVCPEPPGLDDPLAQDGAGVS

As for `N#Cc1c(N)nc(SCc2coc(-c3ccc(Cl)cc3)n2)c(C#N)c1N1CCCCC1` [Example 37, 2-Amino-6-({[2-(4-chlorophenyl)-1,3-oxazol-4-yl]methyl}sulfanyl)-4-(piperidin-1-yl)pyridine-3,5-dicarbonitrile], the EC50 (commonly the concentration giving half of the maximal effect) at adenosine A1 receptor worked out at 2.2 nM; at adenosine A2b receptor, 403 nM; on adenosine A2a receptor it was 357 nM.

Regarding `N#Cc1c(N)nc(SCc2csc(-c3ccc(Cl)cc3)n2)c(C#N)c1N1CCC(O)CC1` [Example 1, 2-Amino-6-({[2-(4-chlorophenyl)-1,3-thiazol-4-yl]methyl}thio)-4-(4-hydroxypiperidin-1-yl)pyridine-3,5-dicarbonitrile], the concentration for a half-maximal effect (EC50) at adenosine A1 receptor stood at 1.3 nM; on adenosine A2b receptor, 116 nM; on adenosine A2a receptor, 686 nM.

On to `N#Cc1c(N)nc(SCc2csc(Nc3ccc(F)cc3)n2)c(C#N)c1N1CCCCC1` [Example 6], for which the 50% effective concentration (EC50) is 45 nM on adenosine A1 receptor, above 3000 nM at adenosine A2b receptor and 1810 nM at adenosine A2a receptor.

As for `N#Cc1c(SCc2csc(-c3ccc(Cl)cc3)n2)nc(N2CCC(O)C2)c(C#N)c1N1CCCCC1` (stereo not drawn) [Example 30], the results for the concentration for a half-maximal effect (EC50) on adenosine A1 receptor, on adenosine A2b receptor and on adenosine A2a receptor were 5.7 nM, 56 nM and 1030 nM, respectively.

Turning to `N#Cc1c(N)nc(SCc2csc(-c3ccc(Cl)cc3)n2)c(C#N)c1N1CCCCC1` [Example 2], the results for the concentration for a half-maximal effect (EC50) on adenosine A1 receptor, on adenosine A2b receptor and at adenosine A2a receptor were 0.5 nM, 44 nM and 385 nM, respectively.

On to `CN1CCN(c2c(C#N)c(N)nc(SCc3csc(-c4ccc(Cl)cc4)n3)c2C#N)CC1` [Example 4], for which the values for the EC50 on adenosine A1 receptor, on adenosine A2b receptor and on adenosine A2a receptor were 12 nM, above 3000 nM and above 3000 nM, respectively.

As to `N#Cc1cnc(SCc2csc(-c3ccc(Cl)cc3)n2)c(C#N)c1N1CCCCC1` [Example 34, 2-({[2-(4-Chlorophenyl)-1,3-thiazol-4-yl]methyl}thio)-4-(piperidin-1-yl)pyridine-3,5-dicarbonitrile], the concentration giving a half-maximal response (EC50) was 46 nM at adenosine A1 receptor, above 3000 nM on adenosine A2b receptor and above 3000 nM on adenosine A2a receptor.

Consider `N#Cc1c(N)nc(SCc2ccc[n+]([O-])c2)c(C#N)c1N1CCCCC1` [Example 27], for which the concentration giving a half-maximal response (EC50) on adenosine A1 receptor is 0.3 nM; at adenosine A2b receptor, 0.9 nM; at adenosine A2a receptor it was 63 nM.

On to `COc1nc(SCc2csc(-c3ccc(Cl)cc3)n2)c(C#N)c(N2CCCCC2)c1C#N` [Example 35, 2-({[2-(4-Chlorophenyl)-1,3-thiazol-4-yl]methyl}thio)-6-methoxy-4-(piperidin-1-yl)pyridine-3,5-dicarbonitrile], for which the EC50 is 8.6 nM on adenosine A1 receptor, above 3000 nM on adenosine A2b receptor and above 3000 nM at adenosine A2a receptor.
